Literature values, collected in publication PMC9181795, “Ibuprofen Favors Binding of Amyloid-β Peptide to Its Depot, Serum Albumin” (International Journal of Molecular Sciences, 2022).
Where two headings read alike, the source gives them in different places.

Test system: mouse models of AD
Set-up: method as in 6 sources, ref [28]–[35] = [28]; PMID 15817521; doi:10.1093/brain/awh452; 28. Heneka M.T. Sastre M. Dumitrescu-Ozimek L. Hanke A. Dewachter I. Kuiperi C. O’Banion K. Klockgether T. Van Leuven F. Landreth G.E. Acute treatment with the PPARgamma agonist pioglitazone and ibupr || [29]; PMID 18374906; doi:10.1016/j.brainres.2008.01.095; 29. McKee A.C. Carreras I. Hossain L. Ryu H. Klein W.L. Oddo S. LaFerla F.M. Jenkins B.G. Kowall N.W. Dedeoglu A. Ibuprofen reduces Abeta, hyperphosphorylated tau and memory deficits in Alzheimer mice || [30]; PMID 19679126; doi:10.1016/j.expneurol.2009.07.032; 30. Choi J.K. Jenkins B.G. Carreras I. Kaymakcalan S. Cormier K. Kowall N.W. Dedeoglu A. Anti-inflammatory treatment in AD mice protects against neuronal pathology Exp. Neurol. 2010 223 377 384 10.101 || [31]; PMID 27190010; doi:10.1093/brain/aww117; 31. Woodling N.S. Colas D. Wang Q. Minhas P. Panchal M. Liang X. Mhatre S.D. Brown H. Ko N. Zagol-Ikapitte I. Cyclooxygenase inhibition targets neurons to prevent early behavioural decline in Alzheime || [32]; PMID 12930788; doi:10.1523/JNEUROSCI.23-20-07504.2003; 32. Yan Q. Zhang J. Liu H. Babu-Khan S. Vassar R. Biere A.L. Citron M. Landreth G. Anti-inflammatory drug therapy alters beta-amyloid processing and deposition in an animal model of Alzheimer’s diseas ||| ref [28],[29],[30],[32],[33],[34],[35] = [28]; PMID 15817521; doi:10.1093/brain/awh452; 28. Heneka M.T. Sastre M. Dumitrescu-Ozimek L. Hanke A. Dewachter I. Kuiperi C. O’Banion K. Klockgether T. Van Leuven F. Landreth G.E. Acute treatment with the PPARgamma agonist pioglitazone and ibupr || [29]; PMID 18374906; doi:10.1016/j.brainres.2008.01.095; 29. McKee A.C. Carreras I. Hossain L. Ryu H. Klein W.L. Oddo S. LaFerla F.M. Jenkins B.G. Kowall N.W. Dedeoglu A. Ibuprofen reduces Abeta, hyperphosphorylated tau and memory deficits in Alzheimer mice || [30]; PMID 19679126; doi:10.1016/j.expneurol.2009.07.032; 30. Choi J.K. Jenkins B.G. Carreras I. Kaymakcalan S. Cormier K. Kowall N.W. Dedeoglu A. Anti-inflammatory treatment in AD mice protects against neuronal pathology Exp. Neurol. 2010 223 377 384 10.101 || [32]; PMID 12930788; doi:10.1523/JNEUROSCI.23-20-07504.2003; 32. Yan Q. Zhang J. Liu H. Babu-Khan S. Vassar R. Biere A.L. Citron M. Landreth G. Anti-inflammatory drug therapy alters beta-amyloid processing and deposition in an animal model of Alzheimer’s diseas || [33]; PMID 10908610; doi:10.1523/JNEUROSCI.20-15-05709.2000; 33. Lim G.P. Yang F. Chu T. Chen P. Beech W. Teter B. Tran T. Ubeda O. Ashe K.H. Frautschy S.A. Ibuprofen suppresses plaque pathology and inflammation in a mouse model for Alzheimer’s disease J. Neuro ||| ref [28] = [28]; PMID 15817521; doi:10.1093/brain/awh452; 28. Heneka M.T. Sastre M. Dumitrescu-Ozimek L. Hanke A. Dewachter I. Kuiperi C. O’Banion K. Klockgether T. Van Leuven F. Landreth G.E. Acute treatment with the PPARgamma agonist pioglitazone and ibupr ||| ref [32] = [32]; PMID 12930788; doi:10.1523/JNEUROSCI.23-20-07504.2003; 32. Yan Q. Zhang J. Liu H. Babu-Khan S. Vassar R. Biere A.L. Citron M. Landreth G. Anti-inflammatory drug therapy alters beta-amyloid processing and deposition in an animal model of Alzheimer’s diseas ||| ref [33],[34] = [33]; PMID 10908610; doi:10.1523/JNEUROSCI.20-15-05709.2000; 33. Lim G.P. Yang F. Chu T. Chen P. Beech W. Teter B. Tran T. Ubeda O. Ashe K.H. Frautschy S.A. Ibuprofen suppresses plaque pathology and inflammation in a mouse model for Alzheimer’s disease J. Neuro || [34]; PMID 15688088; doi:10.1038/sj.npp.1300668; 34. Morihara T. Teter B. Yang F. Lim G.P. Boudinot S. Boudinot F.D. Frautschy S.A. Cole G.M. Ibuprofen suppresses interleukin-1beta induction of pro-amyloidogenic alpha1-antichymotrypsin to ameliorate ||| ...
Conditions: cited from earlier work

Question: What does the source list for `CC(C)Cc1ccc(C(C)C(=O)O)cc1` (stereo not drawn) [IBU, 2-[4-(2-methylpropyl)phenyl]propanoic acid]?
Answer: neuroprotective effects of IBU intake (mouse models of AD, ref [28]–[35]): suppression of the inflammatory processes, reduction in the Aβ sprand tau protein depositions, and lowering of the cognitive and memory deficits; mechanism ascribed to reduced Aβ deposition (ref [28]): downregulation of β-secretase 1 and COX-2; mechanism ascribed to reduced Aβ deposition (ref [32]): reduction in Aβ42 production; mechanism ascribed to reduced Aβ deposition (ref [33],[34]): inhibition of interleukin-1β and its downstream target α1-antichymotrypsin; mechanism ascribed to reduced Aβ deposition (ref [35]): attenuation of NADPH oxidase activation and reactive oxygen species production; brain deposition of Aβ upon treatment with IBU (several mouse AD models, ref [28],[29],[30],[32],[33],[34],[35]): reduction in brain deposition of Aβ
